Measurements from patent publication US11771662B2, “Analgesic formulation for control of pain in dogs” (Kansas State University Research Foundation, priority 2017, dated 2023).

Assays:
in vivo = test: in vivo
Protocol: Five healthy mixed breed, purpose bred dogs were included in this study. […] Blood was obtained immediately prior to the 4 hour dose (i.e. a trough sample).

[1] = system: dogs undergoing ovariohysterectomy; test: Postoperative pain: Glasgow Composite Pain Scale and need for rescue analgesic (Example IV); conditions: 0.5 mg/kg SC q 4 h; total 13
[2] = system: dogs undergoing ovariohysterectomy; test: Sedation scores at each time point in ovariohysterectomy clinical trial (Example IV); conditions: 0.5 mg/kg SC q 4 h
[3] = system: dogs undergoing ovariohysterectomy; test: Pre-anesthetic sedation in ovariohysterectomy clinical trial (Example IV); conditions: 0.5 mg/kg SC q 4 h; with acepromazine 0.05 mg/kg SC
healthy dogs = test: Sedation assessment after oral methadone alone or with oral fluconazole (Example I); format: in vivo, dog; conditions: methadone alone 1 mg/kg PO
[4] = Plasma methadone concentrations by liquid chromatography/triple quadrupole mass spectrometry (Example I); conditions: dog, in vivo, 1 mg/kg, methadone alone 1 mg/kg PO
[5] = Mean plasma methadone concentration, 6 dogs
[6] = Plasma methadone concentration, individual dogs, Dog 1-6

## CCC(=O)C(CC(C)N(C)C)(c1ccccc1)c1ccccc1 (racemic) [methadone]
In vivo; injectable opioid formulation containing an azole antifungal
  Persistence of methadone plasma concentrations compared to the standard formulation of methadone: persisted longer
In vivo; injectable opioid formulation containing an azole antifungal, SC at 0 and 4 h, one dog
  Time to which methadone plasma concentrations persisted: at least 32 hours
In vivo; mixed breed, dog, in vivo, sc
  concentration at 32 h: 4 ng/mL
[1]
  Treatment Outcome: Failure (number of dogs, rescue analgesic needed): 0
  Treatment Outcome: Success (number of dogs, no rescue analgesic): 13
[2]; Day 0 5:00 PM
  Sedation Score Moderate (number of dogs): 0
  Sedation Score None (number of dogs): 13
  Sedation Score Profound (number of dogs): 0
  Sedation Score Slight (number of dogs): 0
[2]; Day 1 1:00 PM
  Sedation Score Moderate (number of dogs): 3
  Sedation Score None (number of dogs): 1
  Sedation Score Profound (number of dogs): 3
  Sedation Score Slight (number of dogs): 6
[2]; Day 1 4:00 PM
  Sedation Score Moderate (number of dogs): 0
  Sedation Score None (number of dogs): 5
  Sedation Score Profound (number of dogs): 0
  Sedation Score Slight (number of dogs): 8
[2]; Day 1 6:00 PM
  Sedation Score Moderate (number of dogs): 1
  Sedation Score None (number of dogs): 4
  Sedation Score Profound (number of dogs): 0
  Sedation Score Slight (number of dogs): 8
[2]; Day 1 8:00 PM
  Sedation Score Moderate (number of dogs): 0
  Sedation Score None (number of dogs): 9
  Sedation Score Profound (number of dogs): 0
  Sedation Score Slight (number of dogs): 6
[2]; Day 1 12:00 PM
  Sedation Score Moderate (number of dogs): 1
  Sedation Score None (number of dogs): 2
  Sedation Score Profound (number of dogs): 0
  Sedation Score Slight (number of dogs): 10
[2]; Day 2 5:00 PM
  Sedation Score Moderate (number of dogs): 0
  Sedation Score None (number of dogs): 13
  Sedation Score Profound (number of dogs): 0
  Sedation Score Slight (number of dogs): 0
[2]; Day 2 6:30 AM
  Sedation Score Moderate (number of dogs): 0
  Sedation Score None (number of dogs): 13
  Sedation Score Profound (number of dogs): 0
  Sedation Score Slight (number of dogs): 0
[2]; Day 3 7:00 AM
  Sedation Score Moderate (number of dogs): 0
  Sedation Score None (number of dogs): 13
  Sedation Score Profound (number of dogs): 0
  Sedation Score Slight (number of dogs): 0
[3]
  Pre-anesthetic sedation: A. None - no apparent effect (number of dogs): 0
  Pre-anesthetic sedation: B. Mild - drowsy, but still active (number of dogs): 7
  Pre-anesthetic sedation: C. Moderate - drowsy, glazed eyes, but still able to walk without assistance (number of dogs): 3
  Pre-anesthetic sedation: D. Heavy - Very drowsy, unable to walk or requires assistance to walk (number of dogs): 3
Healthy dogs
  Sedation: not noted in any of the dogs at any time point
[4]; Mean plasma methadone concentration, 0.333 hr, 6 dogs
  concentration at 0.333 h: 0.8 ng/mL
[4]; Mean plasma methadone concentration, 0.667 hr, 6 dogs
  concentration at 0.667 h: 1.3 ng/mL
[4]; [5]
  concentration at 1 h: 1.2 ng/mL
  concentration at 4 h: 0.4 ng/mL
[4]; Mean plasma methadone concentration, 2 hr, 6 dogs
  concentration at 2 h: 0.7 ng/mL
[4]; Plasma methadone concentration, individual dogs, 0 hr, Dog 1-6
  concentration at 0 h: < 0.5 ng/mL
[4]; [6]
  concentration at 1 h: 1 ng/mL
  concentration at 4 h: < 0.5 ng/mL
[4]; Plasma methadone concentration, individual dogs, 6 hr, Dog 1-6
  concentration at 6 h: < 0.5 ng/mL
[4]; Plasma methadone concentration, individual dogs, 8 hr, Dog 1-6
  concentration at 8 h: < 0.5 ng/mL
[4]; Plasma methadone concentration, individual dogs, 12 hr, Dog 1-6
  concentration at 12 h: < 0.5 ng/mL
